Here are results for 18 compounds from paper PMC11106707, “Design of potent tyrosinase inhibiting N-arylated-4-yl-benzamides bearing 2-aminothiazole-triazole bi-heterocycles: mechanistic insight through enzyme inhibition, kinetics and computational studies” (RSC Advances, 2024).

The IC50 is the midpoint of a concentration-inhibition curve. One may read the Ki as a measure of affinity in units of concentration, obtained from inhibition or displacement.

T1 sequence (C7FF04 1-392): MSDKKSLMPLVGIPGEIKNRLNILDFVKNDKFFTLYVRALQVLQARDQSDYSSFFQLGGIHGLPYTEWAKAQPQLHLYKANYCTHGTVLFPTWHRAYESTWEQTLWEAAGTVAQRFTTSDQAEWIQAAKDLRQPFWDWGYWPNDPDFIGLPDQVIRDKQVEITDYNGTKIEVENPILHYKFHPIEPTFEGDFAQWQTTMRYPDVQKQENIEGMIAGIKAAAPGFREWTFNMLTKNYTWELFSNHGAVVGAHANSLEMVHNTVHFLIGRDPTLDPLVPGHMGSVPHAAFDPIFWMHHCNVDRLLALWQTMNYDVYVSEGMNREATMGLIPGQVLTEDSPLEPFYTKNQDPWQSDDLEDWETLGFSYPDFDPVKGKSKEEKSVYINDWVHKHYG

The subject of one data set is RBCs (erythrocytes). Nature of the data set: Hemolytic activity. In kind it is cell-based. As to conditions: bovine, erythrocyte (RBC) suspension, pH 7.4, 20 μL compound solution (10 mg mL^−1) in 180 μL RBCs suspension, room temperature, read-out: Hemolysis (%) (mean ± SEM). As to the method:
Bovine blood sample was collected in EDTA that was diluted with saline (0.9% NaCl), and centrifuge at 1000 × g for 10 min. The erythrocytes separated diluted in phosphate buffer saline of pH 7.4 and a suspension was made. Add 20 μL of synthetic compounds solution (10 mg mL^−1) in 180 μL of RBCs suspension and incubate for 30 min at room temperature. PBS was used as negative control and Triton 100-X was taken as positive control.[43,44] The percentage of hemolysis was taken as by using formula: [drawing 24]
On to `Cc1ccc(NC(=O)c2ccc(CSc3nnc(Cc4csc(N)n4)n3-c3ccccc3)cc2)cc1C` [9d, 4-[({5-[(2-Amino-1,3-thiazol-4-yl)methyl]-4-phenyl-4H-1,2,4-triazol-3-yl}sulfanyl)methyl]-N-(3,4-dimethylphenyl)benzamide], for which the hemolysis at 30 min, 1 mg/mL came to 8.82 ± 0.04%.
Same read-out and setting: the same measure for `Cc1cccc(C)c1NC(=O)c1ccc(CSc2nnc(Cc3csc(N)n3)n2-c2ccccc2)cc1` [9c, 4-[({5-[(2-Amino-1,3-thiazol-4-yl)methyl]-4-phenyl-4H-1,2,4-triazol-3-yl}sulfanyl)methyl]-N-(2,6-dimethylphenyl)benzamide]: 9.41 ± 0.02%; for `CCc1ccccc1NC(=O)c1ccc(CSc2nnc(Cc3csc(N)n3)n2-c2ccccc2)cc1` [9i, 4-[({5-[(2-Amino-1,3-thiazol-4-yl)methyl]-4-phenyl-4H-1,2,4-triazol-3-yl}sulfanyl)methyl]-N-(2-ethylphenyl)benzamide]: 9.41 ± 0.05%.
On the same count and under the same terms, in the case of `Cc1ccc(NC(=O)c2ccc(CSc3nnc(Cc4csc(N)n4)n3-c3ccccc3)cc2)cc1` [9h, 4-[({5-[(2-Amino-1,3-thiazol-4-yl)methyl]-4-phenyl-4H-1,2,4-triazol-3-yl}sulfanyl)methyl]-N-(4-dimethylphenyl)benzamide] it was 2.64 ± 0.04%; in that of `Cc1cc(C)cc(NC(=O)c2ccc(CSc3nnc(Cc4csc(N)n4)n3-c3ccccc3)cc2)c1` [9e, 4-[({5-[(2-Amino-1,3-thiazol-4-yl)methyl]-4-phenyl-4H-1,2,4-triazol-3-yl}sulfanyl)methyl]-N-(3,5-dimethylphenyl)benzamide], 6.47 ± 0.02%; in that of `CCOc1cccc(NC(=O)c2ccc(CSc3nnc(Cc4csc(N)n4)n3-c3ccccc3)cc2)c1` [9k, 4-[({5-[(2-Amino-1,3-thiazol-4-yl)methyl]-4-phenyl-4H-1,2,4-triazol-3-yl}sulfanyl)methyl]-N-(3-ethoxyphenyl)benzamide], 10.35 ± 0.03%.
The same measure, in the same setting: in the case of `Cc1cccc(NC(=O)c2ccc(CSc3nnc(Cc4csc(N)n4)n3-c3ccccc3)cc2)c1` [9g, 4-[({5-[(2-Amino-1,3-thiazol-4-yl)methyl]-4-phenyl-4H-1,2,4-triazol-3-yl}sulfanyl)methyl]-N-(3-methylphenyl)benzamide] it was 6.52 ± 0.02%; in that of `CC(C)(C)CC(C)(C)c1ccc(OCCO)cc1` [Triton X, reference compound], 94.11 ± 0.01%; in that of `Cc1ccc(NC(=O)c2ccc(CSc3nnc(Cc4csc(N)n4)n3-c3ccccc3)cc2)c(C)c1` [9a, 4-[({5-[(2-Amino-1,3-thiazol-4-yl)methyl]-4-phenyl-4H-1,2,4-triazol-3-yl}sulfanyl)methyl]-N-(2,4-dimethylphenyl)benzamide], 6.47 ± 0.02%.
Regarding `Cc1ccccc1NC(=O)c1ccc(CSc2nnc(Cc3csc(N)n3)n2-c2ccccc2)cc1` [9f, 4-[({5-[(2-Amino-1,3-thiazol-4-yl)methyl]-4-phenyl-4H-1,2,4-triazol-3-yl}sulfanyl)methyl]-N-(2-methylphenyl)benzamide], the hemolysis at 30 min, 1 mg/mL was found to be 12.94 ± 0.03%.
On the same count and under the same terms, in the case of `Cc1ccc(C)c(NC(=O)c2ccc(CSc3nnc(Cc4csc(N)n4)n3-c3ccccc3)cc2)c1` [9b, 4-[({5-[(2-Amino-1,3-thiazol-4-yl)methyl]-4-phenyl-4H-1,2,4-triazol-3-yl}sulfanyl)methyl]-N-(2,5-dimethylphenyl)benzamide] it was 11.76 ± 0.03%.
Regarding `CCc1ccc(NC(=O)c2ccc(CSc3nnc(Cc4csc(N)n4)n3-c3ccccc3)cc2)cc1` [9j, 4-[({5-[(2-Amino-1,3-thiazol-4-yl)methyl]-4-phenyl-4H-1,2,4-triazol-3-yl}sulfanyl)methyl]-N-(4-ethylphenyl)benzamide], the hemolysis at 30 min, 1 mg/mL was 8.52 ± 0.05%.

The target in the next data set is tyrosinase.
Test: not given
As to conditions: tyrosinase inhibitor reported previously, Fig. 1; cited from earlier work.
Consider `Clc1ccc(-c2csc(N/N=C/c3ccc[nH]3)n2)cc1`, for which the IC50 was 7480 ± 190 nM.
On to `O=C(/C=C/c1ccc(O)cc1)NC(=O)c1ccccc1` [N-acryloyl benzamide Derivatives], for which the IC50 was 19200 ± 1140 nM.
With `Nn1c(SCc2cc(=O)c(O)co2)nnc1-c1ccccc1Cl`, the IC50 is 5350 ± 150 nM.
Consider `Cc1ccccc1NC(=O)CSc1nnc(Cc2csc(N)n2)n1-c1ccccc1`, for which the IC50 is 15.6 ± 2.1 nM.
In the case of `COc1cccc(C(=O)NN2C(=O)c3ccccc3NC2c2ccc(Br)cc2)c1` (centres unmarked) [Quinazolinone Benzamide Derivatives], the IC50 was 1610 ± 324 nM.
With `COc1cc(Cl)ccc1-n1c(SCC(=O)Nc2ccc(Br)cc2)nnc1-c1ccccc1`, the IC50 was 4.8 ± 1.6 nM.

Another data set concerns the target T1, mushroom tyrosinase (Agaricus bisporus, UniProt C7FF04).
T1 construct: purchased Sigma Chemical, USA
Nature of the data set: Kinetic analysis of the inhibition of tyrosinase (Lineweaver–Burk / secondary plots). In kind it is biochemical. Conditions: Lineweaver–Burk plots; Vmax decreased, Km remained the same. As to the method: To understand the inhibitory mechanism of synthetic compounds on the tyrosinase inhibition, kinetic study was performed. […] The kinetic results of the enzyme by the Lineweaver–Burk plot of 1/V versus 1/[S] in the presence of different inhibitor concentrations furnished a series of straight lines (Fig. 13A).
Fig. 13 Lineweaver–Burk plots for inhibition of tyrosinase in the presence of compound 9c. (A) Concentrations of 9c were 0.00, 0.004, 0.008, 0.016 and 0.032 μM, respectively. Substrate L-DOPA concentrations were 0.125, 0.25, 0.5, 1 and 2 mM, respectively. (B) The insets represent the plot of the slope versus inhibitor 9c concentrations to determine inhibition constant. The lines were drawn using linear least squares fit.
A series of experiments were performed to determine the inhibition kinetics of 9c by following the already reported methods.[41,42] The inhibitor concentrations for 9c were 0.00, 0.004, 0.008, 0.016 and 0.032 μM. Substrate L-DOPA concentrations were between 0.125 and 2 mM in all kinetic studies. Pre-incubation and measurement time was the same as discussed in the mushroom tyrosinase inhibition assay protocol. Maximal initial velocity was determined from the initial linear portion of absorbance up to five minutes after addition of enzyme at a 30 s interval. […]
On to `Cc1cccc(C)c1NC(=O)c1ccc(CSc2nnc(Cc3csc(N)n3)n2-c2ccccc2)cc1` [9c, 4-[({5-[(2-Amino-1,3-thiazol-4-yl)methyl]-4-phenyl-4H-1,2,4-triazol-3-yl}sulfanyl)methyl]-N-(2,6-dimethylphenyl)benzamide], for which the Inhibition type result is “non-competitively”.

The data set is the same for the next values; noted with them: calculated from Dixon plots; substrate L-DOPA 0.125–2 mM; read-out: Inhibition constant Ki.
As to `Cc1cccc(C)c1NC(=O)c1ccc(CSc2nnc(Cc3csc(N)n3)n2-c2ccccc2)cc1` [9c, 4-[({5-[(2-Amino-1,3-thiazol-4-yl)methyl]-4-phenyl-4H-1,2,4-triazol-3-yl}sulfanyl)methyl]-N-(2,6-dimethylphenyl)benzamide], the Ki is 16 nM.
